One assay concerns the target T1, Cbl (aa49-434) (Homo sapiens, UniProt P22681).
T1 construct: Cbl (aa49-434, in-house); made in house
T1 sequence (P22681 49-434): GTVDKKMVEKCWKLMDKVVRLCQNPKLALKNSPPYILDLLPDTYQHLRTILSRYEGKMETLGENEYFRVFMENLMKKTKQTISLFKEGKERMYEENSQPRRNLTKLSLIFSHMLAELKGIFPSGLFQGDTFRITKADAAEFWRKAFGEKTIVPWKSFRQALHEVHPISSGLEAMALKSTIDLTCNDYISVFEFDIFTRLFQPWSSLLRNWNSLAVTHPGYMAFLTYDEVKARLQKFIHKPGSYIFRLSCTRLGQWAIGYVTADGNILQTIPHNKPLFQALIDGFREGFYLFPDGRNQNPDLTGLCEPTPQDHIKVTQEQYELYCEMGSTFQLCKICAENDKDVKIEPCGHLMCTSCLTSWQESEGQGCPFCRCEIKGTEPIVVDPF
Kind of assay: Co-expressed Cbl with BirA biochemical assay (CBL/E2-Ub binding, HTRF). The note with it: 0.6 nM Cbl co-expressed with BirA, read-out: co-express CBL/E2-Ub-binding assay IC50. An excerpt:
(§1) The assay in the absence of a Cbl-b/Cbl inhibitor, where phosphorylation of Cbl-b/Cbl by the Src kinase allows UbcH5B-Ub to bind to Cbl-b/Cbl and brings the Bodipy-Fluorescein tagged ubiquitin in proximity to the streptavidin-terbium bound to the N-terminal biotinylated Avi-tagged Cbl-b/Cbl. […] The lack of a FRET signal indicates Cbl-b/Cbl is inhibited by the Cbl-b/Cbl inhibitor.

The target of the next assay is T2, Cbl-b (aa36-427) (Homo sapiens, UniProt Q13191).
T2 construct: Cbl-b (aa36-427, in-house); made in house
T2 sequence (Q13191 36-427): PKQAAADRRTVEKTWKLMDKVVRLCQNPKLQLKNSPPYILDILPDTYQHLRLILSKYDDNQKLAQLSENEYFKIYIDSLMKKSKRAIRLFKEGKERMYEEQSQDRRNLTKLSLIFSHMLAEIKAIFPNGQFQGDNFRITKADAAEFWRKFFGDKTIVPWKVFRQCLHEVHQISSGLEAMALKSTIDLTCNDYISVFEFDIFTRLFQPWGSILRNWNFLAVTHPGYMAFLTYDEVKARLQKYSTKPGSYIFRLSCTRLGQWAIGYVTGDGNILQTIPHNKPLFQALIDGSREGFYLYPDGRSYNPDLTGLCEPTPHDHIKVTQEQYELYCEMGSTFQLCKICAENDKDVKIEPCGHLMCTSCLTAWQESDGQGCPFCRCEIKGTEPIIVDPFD
Kind of assay: Co-expressed Cbl-b with BirA biochemical assay (CBLB/E2-Ub binding, HTRF). The note with it: 0.6 nM Cbl-b co-expressed with BirA, HTRF; read-out: co-express CBLB/E2-Ub-binding assay IC50.
Description: as §1

Regarding `Cn1cnnc1[C@]1(c2cccc(NC(=O)c3cc(CNCC4(C)CCC4)c4c(n3)C(C)(C)CO4)c2)C[C@H](CC#N)C1` [Compound C25, N-(3-((1s, 3s)-3-(cyanomethyl)-1-(4-methyl-4H-1,2,4-triazol-3-yl)cyclobutyl)phenyl)-3,3-dimethyl-7-((((1-methylcyclobutyl)methyl)amino)methyl)-2,3-dihydrofuro[3,2-b]pyridine-5-carboxamide], the IC50 on Cbl (aa49-434) turned out to be 49.5 nM; on Cbl-b (aa36-427), 2.8 nM.
On to `Cn1cnnc1[C@]1(c2cccc(NC(=O)c3cc(CNC4(C)CC4)cn4c(Cl)cnc34)c2)C[C@H](CC#N)C1` [Compound A41, 3-chloro-N-(3-((1s, 3s)-3-(cyanomethyl)-1-(4-methyl-4H-1,2,4-triazol-3-yl)cyclobutyl)phenyl)-6-(((1-methylcyclopropyl)amino)methyl)imidazo[1,2-a]pyridine-8-carboxamide], for which the IC50 came out at 0.9 nM on Cbl (aa49-434) and 0.2 nM at Cbl-b (aa36-427).
For `C[C@H]1CCCN(Cc2cc(C(=O)Nc3cccc([C@]4(c5nncn5C)C[C@@H](CC#N)C4)c3)nc3cn[nH]c23)C1` [Compound B8, N-(3-((1s,3R)-3-(cyanomethyl)-1-(4-methyl-4H-1,2,4-triazol-3-yl)cyclobutyl)phenyl)-7-(((S)-3-methylpiperidin-1-yl)methyl)-1H-pyrazolo[4,3-b]pyridine-5-carboxamide], the values for the IC50 on Cbl (aa49-434) and at Cbl-b (aa36-427) were 21 nM and 1.8 nM, respectively.
In the case of `C[C@H](NCc1cc(C(=O)Nc2cccc([C@]3(c4nncn4C)C[C@@H](C)C3)c2)nc2c(F)c[nH]c12)C1CC1` [Compound B37, 7-((((S)-1-cyclopropylethyl)amino)methyl)-3-fluoro-N-(3-((1s,3R)-3-methyl-1-(4-methyl-4H-1,2,4-triazol-3-yl)cyclobutyl)phenyl)-1H-pyrrolo[3,2-b]pyridine-5-carboxamide], the IC50 at Cbl (aa49-434) was 4.5 nM; at Cbl-b (aa36-427), 0.8 nM.
Turning to `C[C@H](NCc1cc(C(=O)Nc2cncc([C@]3(c4nncn4C)C[C@@H](C)C3)c2)nc2cc[nH]c12)C1CCC1` [Compound B43, 7-({[(1S)-1-cyclobutylethyl]amino}methyl)-N-{5-[(1r, 3s)-3-methyl-1-(4-methyl-1,2,4-triazol-3-yl)cyclobutyl]pyridin-3-yl}-1H-pyrrolo[3,2-b]pyridine-5-carboxamide], the IC50 on Cbl (aa49-434) and at Cbl-b (aa36-427) was 0.6 nM throughout.
As for `Cn1cnnc1[C@]1(c2cncc(NC(=O)c3cc(CNCC4CCC4)c4[nH]cc(Cl)c4n3)c2)C[C@H](C)C1` [Compound B53, 3-chloro-7-(((cyclobutylmethyl)amino)methyl)-N-(5-((1s, 3s)-3-methyl-1-(4-methyl-4H-1,2,4-triazol-3-yl)cyclobutyl)pyridin-3-yl)-1H-pyrrolo[3,2-b]pyridine-5-carboxamide], the IC50 at Cbl (aa49-434) turned out to be 9.7 nM; at Cbl-b (aa36-427), 3.1 nM.
In the case of `Cn1cnnc1[C@]1(c2cncc(NC(=O)c3cc(CNCC4CCC4)c4c(n3)C(F)(F)CC4)c2)C[C@H](C)C1` [Compound C52, 4-{[(cyclobutylmethyl)amino]methyl}-7,7-difluoro-N-{5-[(1r, 3s)-3-methyl-1-(4-methyl-1,2,4-triazol-3-yl)cyclobutyl]pyridin-3-yl}-5H,6H-cyclopenta[b]pyridine-2-carboxamide], the values for the IC50 at Cbl (aa49-434) and at Cbl-b (aa36-427) were 14.8 nM and 3.3 nM, respectively.
For `C[C@H](NCc1cc(C(=O)Nc2cccc([C@]3(c4nncn4C)C[C@@H](CC#N)C3)c2)nc2cc[nH]c12)C1CC1` [Compound B28, N-(3-((1s,3R)-3-(cyanomethyl)-1-(4-methyl-4H-1,2,4-triazol-3-yl)cyclobutyl)phenyl)-7-((((S)-1-cyclopropylethyl)amino)methyl)-1H-pyrrolo[3,2-b]pyridine-5-carboxamide], in that order: 2.2 nM and 0.8 nM.
On to `Cn1cnnc1[C@]1(c2cccc(NC(=O)c3cc(CNC4(C)CC4)cn4ccnc34)c2)C[C@@H](C)C1` [Compound A90, N-(3-((1r, 3r)-3-methyl-1-(4-methyl-4H-1,2,4-triazol-3-yl)cyclobutyl)phenyl)-6-(((1-methylcyclopropyl)amino)methyl)imidazo[1,2-a]pyridine-8-carboxamide], for which the IC50 at Cbl (aa49-434) came to 3.2 nM; on Cbl-b (aa36-427) it was 0.5 nM.
For `C[C@H]1CCCN(Cc2cc(C(=O)Nc3cccc([C@]4(c5nncn5C)C[C@@H](CC#N)C4)c3)c3ncc(F)n3c2)C1` [Compound A12, 3-fluoro-6-{[(3S)-3-methylpiperidin-1-yl]methyl}-N-{3-[(1s, 3s)-3-(cyanomethyl)-1-(4-methyl-1,2,4-triazol-3-yl)cyclobutyl]phenyl}imidazo[1,2-a]pyridine-8-carboxamide], in that order: 32.4 nM and 3.9 nM.
For the compound `C[C@H](NCc1cc(C(=O)Nc2cccc([C@]3(c4nncn4C)C[C@@H](CC#N)C3)c2)nc2cc[nH]c12)C1CCC1` [Compound B31, N-(3-((1s,3R)-3-(cyanomethyl)-1-(4-methyl-4H-1,2,4-triazol-3-yl)cyclobutyl)phenyl)-7-((((S)-1-cyclobutylethyl)amino)methyl)-1H-pyrrolo[3,2-b]pyridine-5-carboxamide], the IC50 on Cbl (aa49-434) was 0.7 nM; on Cbl-b (aa36-427), 0.8 nM.
With `Cn1cnnc1C[C@]1(c2cccc(NC(=O)c3cc(CNC4(C)CC4)c4c(n3)C(C)(C)CN4)c2)C[C@H](C#N)C1` [Compound C44, 3,3-dimethyl-7-{[(1-methylcyclopropyl)amino]methyl}-N-{3-[(1r, 3r)-3-cyano-1-[(4-methyl-1,2,4-triazol-3-yl)methyl]cyclobutyl]phenyl}-1H,2H-pyrrolo[3,2-b]pyridine-5-carboxamide], the IC50 at Cbl (aa49-434) came out at 3.3 nM; on Cbl-b (aa36-427) it was 1.5 nM.
For `C[C@H]1CCCN(Cc2cc(C(=O)Nc3cccc([C@]4(Cc5nncn5C)C[C@@H](C#N)C4)c3)nc3c2NCC32CC2)C1` [Compound C17, N-(3-((1r,3S)-3-cyano-1-((4-methyl-4H-1,2,4-triazol-3-yl)methyl)cyclobutyl)phenyl)-7′-(((S)-3-methylpiperidin-1-yl)methyl)-1′,2′-dihydrospiro[cyclopropane-1,3′-pyrrolo[3,2-b]pyridine]-5′-carboxamide], in that order: 1.1 nM and 1.5 nM.
Take `C[C@H](NCc1cc(C(=O)Nc2cccc([C@]3(c4nncn4C)C[C@@H](C)C3)c2)nc2c1CCC2(F)F)C1CCC1` [Compound C59, 4-((((S)-1-cyclobutylethyl)amino)methyl)-7,7-difluoro-N-(3-((1s,3R)-3-methyl-1-(4-methyl-4H-1,2,4-triazol-3-yl)cyclobutyl)phenyl)-6,7-dihydro-5H-cyclopenta[b]pyridine-2-carboxamide]: the IC50 amounted to 7.3 nM at Cbl (aa49-434) and 2.5 nM on Cbl-b (aa36-427).
For `C[C@H](NCc1cc(C(=O)Nc2cccc([C@]3(c4nncn4C)C[C@@H](CC#N)C3)c2)nc2cc[nH]c12)C1CCCC1` [Compound B25, N-(3-((1s,3R)-3-(cyanomethyl)-1-(4-methyl-4H-1,2,4-triazol-3-yl)cyclobutyl)phenyl)-7-((((S)-1-cyclopentylethyl)amino)methyl)-1H-pyrrolo[3,2-b]pyridine-5-carboxamide], in that order: 1.1 nM and 1.2 nM.
Turning to `Cn1cnnc1C[C@]1(c2cccc(NC(=O)c3cc(CNCC4(C)CCCC4)cn4ccnc34)c2)C[C@H](C#N)C1` [Compound A24, N-(3-((1r, 3r)-3-cyano-1-((4-methyl-4H-1,2,4-triazol-3-yl)methyl)cyclobutyl)phenyl)-6-((((1-methylcyclopentyl)methyl)amino)methyl)imidazo[1,2-a]pyridine-8-carboxamide], the IC50 at Cbl (aa49-434) stood at 8.6 nM; on Cbl-b (aa36-427), 2.9 nM.
Take `C[C@H](NCc1cc(C(=O)Nc2cccc([C@]3(c4nncn4C)C[C@@H](C)C3)c2)nc2c1OCC2(C)C)C1CCCC1` [Compound C34, 7-((((S)-1-cyclopentylethyl)amino)methyl)-3,3-dimethyl-N-(3-((1s,3R)-3-methyl-1-(4-methyl-4H-1,2,4-triazol-3-yl)cyclobutyl)phenyl)-2,3-dihydrofuro[3,2-b]pyridine-5-carboxamide]: the IC50 came out at 5.1 nM on Cbl (aa49-434) and 1.3 nM at Cbl-b (aa36-427).
As for `C[C@H]1CCCN(Cc2cc(C(=O)Nc3cccc([C@]4(c5nncn5C)C[C@@H](C)C4)c3)c3ncc(F)n3c2)C1` [Compound A6, 3-fluoro-6-{[(3S)-3-methylpiperidin-1-yl]methyl}-N-{3-[(1r, 3s)-3-methyl-1-(4-methyl-1,2,4-triazol-3-yl)cyclobutyl]phenyl}imidazo[1,2-a]pyridine-8-carboxamide], the IC50 at Cbl (aa49-434) stood at 19.8 nM; at Cbl-b (aa36-427) it was 7.2 nM.
With `Cn1cnnc1[C@]1(c2cccc(NC(=O)c3cc(CNCC(C)(C)C)cn4ccnc34)c2)C[C@H](CC#N)C1` [Compound A32, N-(3-((1s, 3s)-3-(cyanomethyl)-1-(4-methyl-4H-1,2,4-triazol-3-yl)cyclobutyl)phenyl)-6-((neopentylamino)methyl)imidazo[1,2-a]pyridine-8-carboxamide], the IC50 is 4.9 nM at Cbl (aa49-434) and 1.1 nM at Cbl-b (aa36-427).
